Several values for one entry are separate records, joined by “and”; a condition that tells them apart may be missing. Equal entries are not always repeated.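 How tested: cells in 96-well plates exposed to compound for 48 hours at five concentrations. Abbreviation: GI50, concentration required for 50% inhibition of growth. TGI: total growth inhibition.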
How the values were obtained:
Test in all cases: NCI anticancer screen, dose series, 48 h
UACC-62 melanoma = tested on: UACC-62 melanoma
LOX IMVI melanoma = tested on: LOX IMVI melanoma
UACC-257 melanoma = tested on: UACC-257 melanoma
A498 renal = tested on: A498 renal
COLO 205 colon = tested on: COLO 205 colon
SR leukemia = tested on: SR leukemia
SF-268 CNS = tested on: SF-268 CNS
NCI/ADR-RES ovarian = tested on: NCI/ADR-RES ovarian

`Cc1cc(C)nc(SC2=C(Nc3cccc(Cl)c3)C(=O)N(Cc3ccccc3)C2=O)n1` was tested. Which GI50 (UACC-62 melanoma) did it give?
The GI50 was 34.9 µM.

And the TGI (UACC-62 melanoma)?
The TGI was over 170 µM.

What about the GI50 (LOX IMVI melanoma) of the same compound?
Its GI50 is over 170 µM.

And the TGI (LOX IMVI melanoma)?
The TGI was over 170 µM.

What about the GI50 (UACC-257 melanoma) of the same compound?
Its GI50 is over 170 µM.

What about the TGI (UACC-257 melanoma) of the same compound?
The TGI was over 170 µM.

What about the GI50 (A498 renal) of the same compound?
Its GI50 is over 170 µM.

What about the TGI (A498 renal) of the same compound?
The TGI was over 170 µM.

What about the GI50 (COLO 205 colon) of the same compound?
The GI50 was over 170 µM.

What about the TGI (COLO 205 colon) of the same compound?
Its TGI is over 170 µM.

What about the GI50 (SR leukemia) of the same compound?
The GI50 was over 170 µM.

What about the TGI (SR leukemia) of the same compound?
Its TGI is over 170 µM.

What about the GI50 (SF-268 CNS) of the same compound?
The GI50 was over 170 µM.

And the TGI (SF-268 CNS)?
The TGI was over 170 µM.

And the GI50 (NCI/ADR-RES ovarian)?
The GI50 was over 170 µM.

What about the TGI (NCI/ADR-RES ovarian) of the same compound?
Its TGI is over 170 µM.

How did the GI50 (UACC-62 melanoma) turn out when `CC1(C)C2CCC13C(=O)C1OC3(C2)C2C(=O)c3c(O)ccc(O)c3C(=O)C12` (stereo not drawn) was run?
Its GI50 is 97.1 µM.

And the TGI (UACC-62 melanoma)?
The TGI was over 100 µM.

What about the GI50 (LOX IMVI melanoma) of the same compound?
Its GI50 is 32.2 µM.

What about the TGI (LOX IMVI melanoma) of the same compound?
The TGI was over 100 µM.

What about the GI50 (UACC-257 melanoma) of the same compound?
The GI50 was 32.7 µM.

What about the TGI (UACC-257 melanoma) of the same compound?
The TGI was over 66.7 µM.

And the GI50 (A498 renal)?
Its GI50 is 4.95 µM.

And the TGI (A498 renal)?
The TGI was 56.6 µM.

What about the GI50 (COLO 205 colon) of the same compound?
The GI50 was 25.9 µM.

And the TGI (COLO 205 colon)?
The TGI was over 61.5 µM.

What about the GI50 (SR leukemia) of the same compound?
Its GI50 is 5.17 µM.

And the TGI (SR leukemia)?
Its TGI is 17.1 µM.

What about the GI50 (SF-268 CNS) of the same compound?
Its GI50 is over 47.1 µM.

And the TGI (SF-268 CNS)?
The TGI was over 100 µM.

And the GI50 (NCI/ADR-RES ovarian)?
The GI50 was 17.5 µM.

And the TGI (NCI/ADR-RES ovarian)?
Its TGI is 59.1 µM.

Which results are given for `CNC1C(O)CC(OC2C/C=C(\C)C/C(C)=C/C=C/CCC(C)CNC(=O)/C=C/C=C/C2C)OC1C` (stereo not drawn)?
TGI (UACC-62 melanoma): 0.855 µM; TGI (LOX IMVI melanoma): 0.263 µM; TGI (UACC-257 melanoma): 1.65 µM; TGI (A498 renal): 3.24 µM; TGI (COLO 205 colon): 0.679 µM; TGI (SF-268 CNS): 1.78 µM

Which results are given for `CC[C@H](C)C(=O)O[C@H]1CCC=C2C=C[C@H](C)C(CCC3C[C@@H](O)CC(=O)O3)[C@H]21` (stereo partly drawn)?
GI50 (UACC-62 melanoma): 4.75 µM; TGI (UACC-62 melanoma): 61.9 µM; GI50 (LOX IMVI melanoma): 0.965 µM; TGI (LOX IMVI melanoma): > 100 µM; GI50 (UACC-257 melanoma): > 100 µM; TGI (UACC-257 melanoma): > 100 µM; GI50 (A498 renal): 0.0183 µM; TGI (A498 renal): 2.42 µM; GI50 (COLO 205 colon): 10.5 µM; TGI (COLO 205 colon): 36.8 µM; GI50 (SF-268 CNS): 1.94 µM; TGI (SF-268 CNS): > 100 µM; GI50 (NCI/ADR-RES ovarian): 2.3 µM; TGI (NCI/ADR-RES ovarian): > 100 µM

Which GI50 (UACC-62 melanoma) does the source give for `Clc1ccc(CO/N=C(\Cn2ccnc2)c2ccc(Cl)cc2Cl)c(Cl)c1` here?
The GI50 was 1.24 µM.

What about the TGI (UACC-62 melanoma) of the same compound?
Its TGI is 2.67 µM.

What about the GI50 (LOX IMVI melanoma) of the same compound?
The GI50 was 1.45 µM.

What about the TGI (LOX IMVI melanoma) of the same compound?
Its TGI is 3.21 µM.

And the GI50 (UACC-257 melanoma)?
The GI50 was 1.68 µM.

What about the TGI (UACC-257 melanoma) of the same compound?
Its TGI is 3.18 µM.

What about the GI50 (A498 renal) of the same compound?
The GI50 was 1.32 µM.

What about the TGI (A498 renal) of the same compound?
Its TGI is 2.65 µM.

And the GI50 (COLO 205 colon)?
Its GI50 is 1.86 µM.

And the TGI (COLO 205 colon)?
The TGI was 3.29 µM.

What about the GI50 (SR leukemia) of the same compound?
The GI50 was 1.65 µM.

What about the TGI (SR leukemia) of the same compound?
Its TGI is 4.29 µM.

What about the GI50 (NCI/ADR-RES ovarian) of the same compound?
Its GI50 is 1.27 µM.

And the TGI (NCI/ADR-RES ovarian)?
The TGI was 2.9 µM.

Which TGI (UACC-62 melanoma) does the source give for `COC(=O)[C@@H](C)C[C@H](Cc1ccccc1)NC(=O)c1csc([C@@H](C[C@H](C(C)C)N(C)C(=O)[C@@H](NC(=O)[C@H]2CCCCN2C)C(C)C)OC(C)=O)n1` here?
The TGI was over 25 µM.

And the GI50 (LOX IMVI melanoma)?
Its GI50 is 0.000695 µM and 0.0025 µM.

What about the TGI (LOX IMVI melanoma) of the same compound?
The TGI was over 25 µM.

What about the GI50 (A498 renal) of the same compound?
The GI50 was 0.000176 µM and < 0.0025 µM.

What about the TGI (A498 renal) of the same compound?
The TGI was 0.000694 µM and < 0.0025 µM.

And the GI50 (COLO 205 colon)?
The GI50 was under 0.0025 µM.

What about the TGI (COLO 205 colon) of the same compound?
The TGI was under 0.0025 µM.

And the TGI (SR leukemia)?
The TGI was over 25 µM.

And the GI50 (SF-268 CNS)?
The GI50 was 0.000671 µM and 0.0025 µM.

What about the TGI (SF-268 CNS) of the same compound?
Its TGI is over 25 µM.

And the GI50 (NCI/ADR-RES ovarian)?
Its GI50 is 0.00383 µM and 0.0025 µM.

What about the TGI (NCI/ADR-RES ovarian) of the same compound?
Its TGI is over 25 µM.

`Cc1ccc(S(=O)(=O)N/N=C(\C(=O)Nc2cccc([N+](=O)[O-])c2)c2nc3ccc([N+](=O)[O-])cc3[nH]c2=O)cc1` was tested. Which TGI (UACC-62 melanoma) did it give?
Its TGI is over 100 µM.

What about the TGI (LOX IMVI melanoma) of the same compound?
The TGI was over 100 µM.

And the TGI (UACC-257 melanoma)?
Its TGI is over 100 µM.

What about the TGI (A498 renal) of the same compound?
The TGI was over 100 µM.

What about the TGI (COLO 205 colon) of the same compound?
Its TGI is over 100 µM.

And the TGI (SR leukemia)?
The TGI was over 100 µM.

What about the TGI (SF-268 CNS) of the same compound?
Its TGI is over 100 µM.

Which TGI (UACC-62 melanoma) does the source give for `CCOC(=O)c1cc2ncccc2c2ccccc12` here?
The TGI was over 100 µM.

What about the TGI (LOX IMVI melanoma) of the same compound?
Its TGI is over 100 µM.

What about the TGI (UACC-257 melanoma) of the same compound?
Its TGI is over 100 µM.

And the TGI (COLO 205 colon)?
The TGI was over 100 µM.

What about the TGI (SR leukemia) of the same compound?
Its TGI is over 100 µM.

And the TGI (SF-268 CNS)?
The TGI was over 100 µM.

What about the TGI (NCI/ADR-RES ovarian) of the same compound?
Its TGI is over 100 µM.

Which results are given for `CC1C(=O)N(C)C2(CO)C(=O)O[C@H](C)C12O` (stereo partly drawn)?
TGI (UACC-62 melanoma): > 100 µM; TGI (COLO 205 colon): > 100 µM; TGI (SR leukemia): > 100 µM; TGI (SF-268 CNS): > 100 µM

Which results are given for `CC(C)(O)[C@H]1[C@@H]2OC(=O)[C@H]1[C@]1(O)C[C@H]3OC34C(=O)O[C@H]2[C@@]41C` (stereo partly drawn) (tested in a mixture with another compound)?
TGI (UACC-62 melanoma): > 100 µM; TGI (LOX IMVI melanoma): > 100 µM; TGI (UACC-257 melanoma): > 100 µM; TGI (A498 renal): > 100 µM; TGI (COLO 205 colon): > 100 µM; TGI (SF-268 CNS): > 100 µM

How did the TGI (LOX IMVI melanoma) turn out when `O=C1C=CC2(C=C1)CCN=c1c(O)c3c(c(O)c12)=NC=N3` was run?
The TGI was 15.1 µM and > 100 µM.

What about the TGI (UACC-257 melanoma) of the same compound?
The TGI was 21.6 µM and > 100 µM.

What about the GI50 (A498 renal) of the same compound?
Its GI50 is 19.2 µM and > 100 µM.

What about the TGI (A498 renal) of the same compound?
The TGI was 33.5 µM and > 100 µM.

And the GI50 (COLO 205 colon)?
Its GI50 is 21.2 µM and > 100 µM.

And the TGI (COLO 205 colon)?
Its TGI is 36.7 µM and > 100 µM.

What about the GI50 (SR leukemia) of the same compound?
Its GI50 is 10.6 µM and 93 µM.

And the TGI (SR leukemia)?
The TGI was over 100 µM.

And the TGI (SF-268 CNS)?
The TGI was 26.8 µM and > 100 µM.

What about the GI50 (NCI/ADR-RES ovarian) of the same compound?
The GI50 was 22.7 µM and > 100 µM.

What about the TGI (NCI/ADR-RES ovarian) of the same compound?
Its TGI is over 100 µM.

Reference: PubChem BioAssay (NCI)
